Data reported in patent publication US20220389013A1, “PYRIDOPYRIMIDINONE COMPOUNDS AND APPLICATIONS THEREOF” (BeBetter Med Inc., priority 2020, published 2022).

Key:
KRAS-G12C/SOS1 = molecular target: T1, KRAS-G12C/SOS1 (Homo sapiens, UniProt P01116, G12C); assay: HTRF KRAS-G12C/SOS1 binding assay; conditions: 2 hours room temperature
T1 construct: purchased Cisbio #63ADK000CB16PEG
Experimental: 2) Diluted the compound to be tested with diluent into 10× stock solution, starting from a concentration of 10000 nM, diluting in 4-fold gradient and a total of 6 concentration gradients.
After incubated at room temperature for 15 minutes, added pre-mixed 5 uL of anti-Tag1-Tb^3+ and 5 uL of anti-Tag2-XL665. Sealed the plate and incubated at room temperature for 2 hours.
Data were processed by using Graphpad prism software.

[1] = Pharmacokinetic (PK) experiment in rats by gavage; type: in vivo; conditions: rat, plasma, po, male SD rats, 20 mg/kg; for AUC(0-t): read-out: AUC0-24
Experimental: Male SD rats, weighing 180-250 g, were fasted overnight before the test and stomach administrated with the test compound at 20 mg/kg. 15 minutes, 30 minutes, and 1, 2, 4, 6, 8, and 24 hours after administration, blood was taken from the end of the tail of the fracture, about 0.3 mL per time point, then placed in a centrifuge tube containing K2-EDTA, and centrifuged (2000 g, 10 min, at 4° C.). Plasma was collected and stored in an ultra-low temperature freezer at −80° C. 50 μL of plasma samples were vortexed with 135 μL of acetonitrile (containing 1 μg/mL internal standard) for protein precipitation and centrifuged, and the supernatant was collected for LC-MS/MS analysis.
After the rats oral administrated with the Pyridopyrimidinone compounds provided by the present disclosure, the absorption is good, and the blood exposure is relatively high. […] Cmax refers to the maximum plasma concentration, T1/2 is the half-life, AUC0-24 refers to the area under the 0-24 hour time-concentration curve, and AUC0-inf refers to the area under the 0-Inf time-concentration curve.

H23 (KRAS G12C) = assay: Tumor cell proliferation inhibition assay (CellTiter-Glo), H23; type: cell-based, Human; conditions: 10% fetal bovine serum
Experimental: The H358, H23 or MIA-Paca2 cells were digested, centrifuged and resuspended, and the cell density was measured with a Scepter automatic cell counter. Cells were diluted to a solution containing 44,000 cells per milliliter, then added to a 96-well culture plate at 90 μL per well. The 96-well plate was placed in a 5% CO2 incubator at 37° C., and after the cells were cultured for 24 hours, different concentrations of the compounds to be tested were added. Cells were incubated with compounds in the presence of 10% fetal bovine serum for 72 hours. The inhibition of cell growth was assessed by measuring ATP levels by using the CellTiter-Glo Luminescent Cell Viability Assay Kit (details in manufacturer's instructions). In brief, 30 μL of CellTiter-Glo reagent was added to each well and the plate was shaken for 10 minutes to induce cell lysis, then the fluorescent signal was detected and recorded with a Fluoroskan Ascent FL (Thermo). Maximum signal values were obtained from cells treated with DMSO for 72 hours. Minimum signal values were obtained with medium only (zero cell number). Inhibition rate %=(maximum signal value-compound signal value)/(maximum signal value-minimum signal value)×100%. Data were processed by using Graphpad prism5 software. IC50 values were calculated using a sigmoidal dose-response curve.

MIA-Paca2 (KRAS G12C) = assay: Tumor cell proliferation inhibition assay (CellTiter-Glo), MIA-Paca2; type: cell-based, Human; conditions: 10% fetal bovine serum
Procedure, shortened: (§1)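 Growth was read as ATP by CellTiter-Glo luminescence, with inhibition normalised to DMSO (max) and medium-only (min) wells. IC50 came from sigmoidal dose-response fits.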

H358 (KRAS G12C) = assay: Tumor cell proliferation inhibition assay (CellTiter-Glo), H358; type: cell-based, Human; conditions: 10% fetal bovine serum
Procedure, shortened: as §1

[2] = Caco-2 cell transmembrane transport experiment; conditions: human; for efflux ratio at 90 min, 10 μM: Caco-2, pH 7.4; for Papp B→A at 90 min, 10 μM: basolateral to apical
Source text: In this experiment, a monolayer of Caco-2 cells was used to assess drug penetration. […] The apparent permeability coefficient from apical to basolateral (Papp A-B) and the basolateral to apical permeability coefficient (Papp B-A) of compounds represent the ability of the compound to be transported in both directions, respectively.
Apparent permeability coefficient (Papp)=(the volume of the receiver chamber/the filter surface area×culture time))×(the drug concentration of receiver chamber at the end of culture/(the drug concentration of donor chamber at the initial culture×dilution factor)
In this experiment, Millipore cell culture plates (PSHT 010 R5): membrane area=0.7 cm^2, recipient side volume=0.8 mL (A-to-B) or 0.4 mL (B-to-A), incubation time=90 minutes.

[3] = Caco-2, pH 7.4, Papp A-B Sample_01, 10 μM, pH 7.4, 37° C., 90 min, apical to basolateral
[4] = Caco-2, pH 7.4, Papp A-B Sample_02, 10 μM, pH 7.4, 37° C., 90 min, apical to basolateral
[5] = Caco-2, pH 7.4, Papp A-B mean value, 10 μM, pH 7.4, 37° C., 90 min, apical to basolateral
[6] = Caco-2, pH 7.4, Papp B-A Sample_01, 10 μM, pH 7.4, 37° C., 90 min
[7] = Caco-2, pH 7.4, Papp B-A Sample_02, 10 μM, pH 7.4, 37° C., 90 min
[8] = Caco-2, pH 7.4, Papp B-A mean value, 10 μM, pH 7.4, 37° C., 90 min
[9] = Caco-2, pH 7.4, apparent permeability coefficient Papp A-B, Caco-2

T1 sequence (P01116 1-188 isoform P01116-2 G12C): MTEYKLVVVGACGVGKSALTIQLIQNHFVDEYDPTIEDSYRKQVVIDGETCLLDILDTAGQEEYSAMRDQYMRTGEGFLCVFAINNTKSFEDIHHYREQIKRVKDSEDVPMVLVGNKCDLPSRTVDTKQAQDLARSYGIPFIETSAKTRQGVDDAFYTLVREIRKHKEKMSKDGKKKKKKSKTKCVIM

| SMILES | IC50 (KRAS-G12C/SOS1) | AUC(0-inf) [1] | Cmax [1] | Tmax [1] | half-life [1] | AUC(0-t) [1] | IC50 (MIA-Paca2 (KRAS G12C); Homo sapiens, MIA PaCa-2, 72 h) | IC50 (H358 (KRAS G12C); Homo sapiens, NCI-H358, 72 h) | also measured |
| --- | --- | --- | --- | --- | --- | --- | --- | --- | --- |
| C=CC(=O)N1CCN(c2nc(=O)n(-c3c(C)ccnc3C(C)C)c3nc(-c4c(F)ccc5ccoc45)c(Cl)cc23)[C@@H](C)C1 [Compound 73, 4-((S)-4-acryloyl-2-methylpiperazin-1-yl)-6-chloro-7-(6-fluorobenzofuran-7-yl)-1-(2-isopropyl-4-methylpyridin-3-yl)pyrido[2,3-d]pyrimidin-2(1H)-one] | < 50 nM | 8640 ng·h/mL | 3360 ng/mL | 1 h | 3.97 h | 8630 ng·h/mL | < 0.01 µM | < 0.01 µM | IC50 (H23 (KRAS G12C); Homo sapiens, 72 h): < 0.01 µM |
| C=CC(=O)N1CCN(c2nc(=O)n(-c3c(C(C)C)ccnc3C(C)C)c3nc(-c4c(F)ccc5ccoc45)c(Cl)cc23)[C@@H](C)C1 [Compound 122, 4-((S)-4-acryloyl-2-methylpiperazin-1-yl)-6-chloro-1-(2,4-diisopropylpyridin-3-yl)-7-(6-fluorobenzofuran-7-yl)pyrido[2,3-d]pyrimidin-2(1H)-one] | < 50 nM | 6000 ng·h/mL | 1630 ng/mL | 1.67 h | 3.64 h | 5990 ng·h/mL | < 0.01 µM | < 0.01 µM | melting point: 162 to 173 °C |
| C=CC(=O)N1CCN(c2nc(=O)n(-c3c(C)ccnc3C(C)C)c3nc(-c4c(F)ccc5ccoc45)c(F)cc23)[C@@H](C)C1 (single isomer, unassigned) [Compound 70-1] | 50 to 100 nM | 7910 ng·h/mL | 3530 ng/mL | 1 h | 2.77 h | 7890 ng·h/mL |  |  | IC50 (H23 (KRAS G12C); 72 hours): < 0.01 µM; IC50 (MIA-Paca2 (KRAS G12C); 72 hours): 0.01 to 0.05 µM; IC50 (H358 (KRAS G12C); 72 hours): 0.01 to 0.05 µM; efflux ratio at 90 min, 10 μM [2]: 1.19; Papp A→B at 90 min, 10 μM [2, 3]: 19 ×10⁻⁶ cm/s; Papp A→B at 90 min, 10 μM [2, 4]: 18.8 ×10⁻⁶ cm/s; Papp A→B at 90 min, 10 μM [2, 5]: 18.9 ×10⁻⁶ cm/s; Papp B→A at 90 min, 10 μM [2, 6]: 21.1 ×10⁻⁶ cm/s; Papp B→A at 90 min, 10 μM [2, 7]: 23.7 ×10⁻⁶ cm/s; Papp B→A at 90 min, 10 μM [2, 8]: 22.4 ×10⁻⁶ cm/s; Papp A→B at 90 min, 10 μM [2, 9]: > 10 ×10⁻⁶ cm/s |
| C=CC(=O)N1C[C@H](C)N(c2nc(=O)n(-c3c(C)ccnc3C(C)C)c3nc(-c4c(F)ccc5ccoc45)c(F)cc23)C[C@H]1C (single isomer, unassigned) [Compound 89-1] | 50 to 100 nM | 9020 ng·h/mL | 3200 ng/mL | 1 h | 3.1 h | 9010 ng·h/mL | 0.01 to 0.05 µM | 0.01 to 0.05 µM | melting point: 275 to 277 °C |
| C=CC(=O)N1CCN(c2nc(=O)n(-c3c(C)ccnc3C(C)C)c3nc(-c4c(F)ccc5c4OCC5)c(F)cc23)[C@@H](C)C1 [Compound 79, 4-((S)-4-acryloyl-2-methylpiperazin-1-yl)-6-fluoro-7-(6-fluoro-2,3-dihydrobenzofuran-7-yl)-1-(2-isopropyl-4-methylpyridin-3-yl)pyrido[2,3-d]pyrimidin-2(1H)-one] | 100 to 500 nM |  |  |  |  |  | 0.01 to 0.05 µM | 0.01 to 0.05 µM |  |
| C=CC(=O)N1C[C@H](C)N(c2nc(=O)n(-c3c(C)ccnc3C(C)C)c3nc(-c4c(F)c(F)cc5ccoc45)c(Cl)cc23)C[C@H]1C (single isomer, unassigned) [Compound 104-1] | < 50 nM | 10500 ng·h/mL | 2590 ng/mL | 1 h | 4.35 h | 10300 ng·h/mL | 0.01 to 0.05 µM | < 0.01 µM | IC50 (H23 (KRAS G12C); Homo sapiens, 72 h): < 0.01 µM; efflux ratio at 90 min, 10 μM [2]: 1.92; Papp A→B at 90 min, 10 μM [2, 3]: 11.2 ×10⁻⁶ cm/s; Papp A→B at 90 min, 10 μM [2, 4]: 10.4 ×10⁻⁶ cm/s; Papp A→B at 90 min, 10 μM [2, 5]: 10.8 ×10⁻⁶ cm/s; Papp B→A at 90 min, 10 μM [2, 6]: 22.1 ×10⁻⁶ cm/s; Papp B→A at 90 min, 10 μM [2, 7]: 19.5 ×10⁻⁶ cm/s; Papp B→A at 90 min, 10 μM [2, 8]: 20.8 ×10⁻⁶ cm/s; Papp A→B at 90 min, 10 μM [2, 9]: > 10 ×10⁻⁶ cm/s |
| C=CC(=O)N1CCN(c2nc(=O)n(-c3c(C)ccnc3C(C)C)c3nc(-c4c(F)ccc5c4OCO5)c(Cl)cc23)[C@@H](C)C1 [Compound 97, 4-((S)-4-acryloyl-2-methylpiperazin-1-yl)-6-chloro-7-(5-fluorobenzo[d][1,3]dioxol-4-yl)-1-(2-isopropyl-4-methylpyridin-3-yl)pyrido[2,3-d]pyrimidin-2(1H)-one] | 50 to 100 nM | 10400 ng·h/mL | 4660 ng/mL | 1 h | 5.98 h | 10400 ng·h/mL | 0.01 to 0.05 µM | < 0.01 µM |  |
